# Where “and” joins values, the source holds several entries; their conditions need not be identical. Equal entries are not always repeated. Structures can show the parent of a compound that is named as a salt. Where two headings read alike, the source gives them in different places.
# Columns and labels:
# [1] = assay type: in vivo, human; conditions: for gastric disturbances (subjects treated): Indometacin capsules of 25 mg
# Procedure: Thus for example comparing CR 604 administered in capsules of 75 mg (6 per day), with Indometacin in capsules of 25 mg (6 per day), i.e. in approximately equimolecular doses on a group of 60 subjects treated (30 with CR 604 and 30 with Indometacin, one notes that (see Table 7): […]
# [2] = Analgesic activity, phenylquinone test; assay type: in vivo, rat; conditions: read-out: ED50 per os, analgesic activity (phenylquinone test)
# Source text: 2. Analgesic activity: The analgesic activity of an anti-inflammatory can be examined traditionally by the phenylquinone method based on the fact that intra-peritoneal administration to a rat of an irritant substance such as phenylquinone induces vocal reactions ("squirring") in the animal.
# From the number of these reactions one judges the pain sensitivity.
# [3] = system: urinary calcium; assay type: in vivo, human
# Procedure: (§1) Thus for example comparing CR 604 administered in capsules of 75 mg (6 per day), with Indometacin in capsules of 25 mg (6 per day), i.e. in approximately equimolecular doses on a group of 60 subjects treated (30 with CR 604 and 30 with Indometacin, one notes that (see Table 7):
# c. […] Excretion of calcium is related to the destruction of the fibrils of the proteic bone matrix which thus also loses the calcium deposited upon it.
# The administration of known anti-inflammatories brings about the lysis of these fibrils with loss of calcium.
# [4] = Irritant and ulceroid (gastrolesive) activity on the gastric mucosa; conditions: in vivo, rat
# Procedure: 4. Irritant and ulceroid activity on the gastric mucosa
# The experimental evaluation of this activity was made on rats, by the method here reported:
# The compound is administered orally to rats which have fasted for 12 hours, the animals being killed 4 hours after the administration.
# Regarded as positive, i.e. with stomach damage, are those animals which have at least one haemorrhage point on the stomach wall.
# By ED50 there is meant that dose of the drug which can […] in 50% of the animals treated, the formation of these haemorrhages.
# In Table 6 there are compared CR 604 and Indometacin, since the latter is, amongst them all, the nearest to the anti-inflammatory activity values of CR 604.
# [5] = Pellets-induced granuloma test (cotton pellets); assay type: in vivo, rat; conditions: read-out: ED50 per os, acute anti-inflammatory activity (granuloma test)
# Procedure: 1b. Pellets-induced granuloma test:
# Another important test for the evaluation of an anti-inflammatory is that of cotton pellets. This consists of planting a sterile cotton pellet under the rat's back skin.
# This pellet is left in situ for a week while the animals are treated daily with various doses of the drug being examined. Evaluation is effected by weighing the pellets taken at the given time and dried, comparing the weight of those of the treated animals with the checks.
# [6] = Anti-inflammatory activity, paw test (Domenjoz test); assay type: in vivo, rat; conditions: read-out: ED50 per os, acute anti-inflammatory activity (Domenjoz test)
# Procedure: 1a. Anti-inflammatory activity: this activity was measured by the paw test according to Doemnjoz, characterised in its carrying out by the following method:
# To young rats of medium weight of 200 g there is administered by hypodermic injection into the right paw an aqueous suspension of carragheen at 1%, 1 hour after the oral administration of the drugs under investigation.
# After two hours from the administration of the carragheen, the pawas are disjointed, weighed, and comparison is made between the injected paw, meanwhile swollen, and the paw not interfered with.
# This evaluation is expressed both in mg/kg of animal weight and in micromoles/Kg of weight of the animal.
# [7] = system: uropepsinogene; assay type: in vivo, human
# Procedure: as §1
# Gastric secretion of pepsin is increased by agents which irritate and damage the gastric mucosa.
# [8] = Osteolathyrism in the rabbit (aminoacetonitrile); assay type: in vivo; conditions: for Deformed gait of back legs / Deformed gait of front legs / General Condition of Animal / Loss of fur / Loss of weight / Ptosis of auricular pavilion: score 0 (no damage) to 4 (maximum damage), 25 days
# Procedure: B. Tests in vivo: Osteolathyrism in the rabbit.
# Osteolathrism consists of inducing into young rabbits a dystrophy of the bone joint system, administering every day aminoacetonitrile by i.p. means, in the quantity of 100 mg/kg of body weight. With this treatment, in about 30 days, the following changes are shown in the rabbit:
# Loss of weight (related to the checks physiologically treated), ptosis of the auricular pavilion, loss of fur, deformation of the front and rear limbs, deterioration of the general condition.
# All this takes place because the aminoacetonitrile is a collagen tissue poison which changes the biochemical composition of the joint cartilages and the bones.
# An evaluation of the therapeutic activity can be made either by biochemical evaluation, i.e. by measuring the quantity of aminosugars in these tissues, or by considering only the general symptoms, which are proportional to the diminution of the aminosugars.
# In Table 5 this latter evaluation is reported, in which every symptom was evaluated by allotting it a number from 0 to 4, 4 indicating the maximum amount of damage and 0 indicating no damage.
# On Table 5 there are given the results of treatment evaluated on the 25th day, comparing the groups treated only with a physiological solution, only with aminoacetonitrile, with aminoacetonitrile and CR 604, with aminoacetonitrile and Indometacin in the prescribed doses.
# Each group consisted of 8 animals.
# [9] = system: fibroblast culture; assay: Production of mucopolysaccharides from fibroblast culture in vitro; assay type: cell-based; conditions: Fibroblast, 240 h, read-out: Mucopolysaccharide products at the tenth day of incubation; for activity at 10 µg/mL: 10 μg/ml of culture liquid
# Procedure: a. Tests in vitro: These tests consist of the cultivation in vitro, i.e., outside the organism, of tissue of the same embriological origin in relation to the osteoarticular. Upon the growth of this tissue there is then measured the activities of the various drugs. The units of measurement of these activities is the production of glucosaminoglicanes (mucopolysaccharides measured by the turbidimetric method).
# The compounds which form the subject of this invention were evaluated according to this test and compared with known anti-inflammatories.
# [10] = Solubility; assay type: physicochemical
# [11] = oral, fasted 12 hours, killed 4 hours after administration, read-out: ED50 gastrolesive
# [12] = rat, oral 1 hour before carragheen 1%, paws weighed after two hours
# [13] = 15 mg/kg/day i.p. + aminoacetonitrile 100 mg/kg/day
# [14] = after one week, CR 604 75 mg or Indometacin 25 mg capsules, 6 per day
# [15] = after three weeks, CR 604 75 mg or Indometacin 25 mg capsules, 6 per day
# [16] = 5 mg/kg/day i.p. + aminoacetonitrile 100 mg/kg/day
smiles,measurement,setting,value
"CCCN(CCC)C(=O)C(CCC(=O)OCCCN1CCN(CCOC(=O)Cc2c(C)n(C(=O)c3ccc(Cl)cc3)c3ccc(OC)cc23)CC1)NC(=O)c1ccccc1 (racemic) [CR 604 (di-maleate), N'-2-[1-(p-chlorobenzoyl)-5-methoxy-2-methyl-3-indoleacetoxy]ethyl-N-3-(N-benzoyl-N', N'-di-n-propyl-DL-isoglutaminoyl)-oxypropyl-piperazine]",Epigastric pain,[1]; in vivo,0 % of patients in pain
same,ED50,"[2]; rat, oral",5.3 µmol/kg and 5.72 mg/kg
same,Urinary calcium,[3]; in vivo,132 mg/1000 cc of urine
same,TD50 at 4 h,[4]; [11],330 µmol/kg
same,TD50 at 4 h,[4]; po,355 mg/kg
same,ED50,"[5]; rat, oral, daily for a week",25.6 µmol/kg and 27.6 mg/kg
same,ED50,[6]; [12],11.5 µmol/kg and 12.3 mg/kg
same,Uropepsinogene,[7]; in vivo,216.3 equivalent mg of tyrosine per
same,Deformed gait of back legs,[8]; [13],0.6
same,Deformed gait of front legs,[8]; [13],0
same,General Condition of Animal,[8]; [13],0.2
same,Loss of fur,[8]; [13],0
same,Loss of weight,[8]; [13],0
same,Ptosis of auricular pavilion,[8]; [13],0.2
same,activity at 6 µg/mL,[9]; 6 μg/ml of culture liquid,108%
same,solubility in acetone,[10],slightly soluble
same,solubility in ethanol,[10],slightly soluble
same,solubility in methanol,[10],more soluble
same,"solubility in water, in words",[10]; water,Insoluble
"CCCN(CCC)C(=O)C(CCC(=O)OCCCN1CCN(CCOC(=O)Cc2c(C)n(C(=O)c3ccc(Cl)cc3)c3ccc(OC)cc23)CC1)NC(=O)c1ccccc1 (racemic) [CR 604 di-hydrochloride, N'-2-[1-(p-chlorobenzoyl)-5-methoxy-2-methyl-3-indoleacetoxy]ethyl-N-3-(N-benzoyl-N', N'-di-n-propyl-DL-isoglutaminoyl)-oxypropyl-piperazine]",solubility in acetone,[10],Fairly soluble
same,solubility in ethanol,[10],Soluble
same,solubility in methanol,[10],Soluble
same,"solubility in water, in words",[10]; water,Hardly soluble
same,solubility,"[10]; water, 25°",~5000 µg/mL
"CCCN(CCC)C(=O)C(CCC(=O)OCCCN1CCN(CCOC(=O)Cc2c(C)n(C(=O)c3ccc(Cl)cc3)c3ccc(OC)cc23)CC1)NC(=O)c1ccccc1 (racemic) [CR 604 dioxalate, N'-2-[1-(p-chlorobenzoyl)-5-methoxy-2-methyl-3-indoleacetoxy]ethyl-N-3-(N-benzoyl-N', N'-di-n-propyl-DL-isoglutaminoyl)-oxypropyl-piperazine]",solubility in acetone,[10],slightly soluble
same,solubility in ethanol,[10],slightly soluble
same,solubility in methanol,[10],slightly soluble
same,"solubility in water, in words",[10]; water,Insoluble
"CCCN(CCC)C(=O)C(CCC(=O)OCCCN1CCN(CCCOC(=O)Cc2c(C)n(C(=O)c3ccc(Cl)cc3)c3ccc(OC)cc23)CC1)NC(=O)c1ccccc1 (racemic) [CR 613 (di-maleate), N'-3-[1(p-chlorobenzoyl)-5-methoxy-2-methyl-3-indoleacetoxy]-propyl-N-3-(N-benzoyl-N',N'-di-n-propyl-DL-isoglutaminoyl)-oxypropyl-piperazine]",TD50 at 4 h,[4]; [11],277 µmol/kg
same,TD50 at 4 h,[4]; po,303 mg/kg
same,ED50,[6]; [12],13.6 µmol/kg and 14.9 mg/kg
same,solubility in acetone,[10],slightly soluble
same,solubility in ethanol,[10],slightly soluble
same,solubility in methanol,[10],more soluble
same,"solubility in water, in words",[10]; water,Insoluble
"CCCN(CCC)C(=O)C(CCC(=O)OCCN1CCN(CCOC(=O)Cc2c(C)n(C(=O)c3ccc(Cl)cc3)c3ccc(OC)cc23)CC1)NC(=O)c1ccccc1 (racemic) [CR 626 (di-maleate), N'-2-[1-(p-chlorobenzoyl)-5-methoxy-2-methyl-3-indoleacetoxy]-ethyl-N-2-(N-benzoyl-N',N'-di-n-propyl-D,L-isoglutaminoyl)-oxyethyl-piperazine]",TD50 at 4 h,[4]; [11],342 µmol/kg
same,TD50 at 4 h,[4]; po,363 mg/kg
same,ED50,[6]; [12],15 µmol/kg and 16 mg/kg
same,solubility in acetone,[10],slightly soluble
same,solubility in ethanol,[10],slightly soluble
same,solubility in methanol,[10],more soluble
same,"solubility in water, in words",[10]; water,Insoluble
CC(=O)Oc1ccccc1C(=O)O [Acetylsalicylic ac.],ED50,"[6]; Rattus norvegicus, po",1250 µmol/kg and 226 mg/kg
CC(C)Cc1ccc(C(C)C(=O)O)cc1 (stereo not drawn) [Ibuprofen],ED50,[6]; [12],436 µmol/kg and 90 mg/kg
COc1ccc2c(c1)c(CC(=O)O)c(C)n2C(=O)c1ccc(Cl)cc1 [Indometacin],gastric disturbances (subjects treated),"[1]; after 1 week of treatment, 6 per day",46.6%
same,gastric disturbances (subjects treated),"[1]; after 3 weeks of treatment, 6 per day",53.3%
same,Epigastric pain,"[1]; after 3 weeks, CR 604 75 mg or Indometacin 25 mg capsules, 6 per day",53.3 % of patients in pain
same,Epigastric pain,[1]; [14],46.6 % of patients in pain
same,Epigastric pain,[1]; before treatment,0 % of patients in pain
same,ED50,"[2]; Rattus norvegicus, po",5.6 µmol/kg and 2 mg/kg
same,Urinary calcium,[3]; [14],137 mg/1000 cc of urine
same,Urinary calcium,[3]; [15],148 mg/1000 cc of urine
same,Urinary calcium,[3]; before treatment,126 mg/1000 cc of urine
same,"excretion of urinary calcium, in words",[3]; human,tendency to an increase
same,TD50 at 4 h,[4]; [11],33.5 µmol/kg and 12 mg/kg
same,"gastrolesive dose, in words",[4]; po,very low
same,ED50,"[5]; Rattus norvegicus, po",23.5 µmol/kg and 8.41 mg/kg
same,ED50,"[6]; Rattus norvegicus, po",17.3 µmol/kg and 6.2 mg/kg
same,Uropepsinogene,[7]; [14],208.1 equivalent mg of tyrosine per
same,Uropepsinogene,[7]; [15],345.7 equivalent mg of tyrosine per
same,Uropepsinogene,[7]; before treatment,164.7 equivalent mg of tyrosine per
same,"uropepsinogene in urine, in words",[7]; human,increases
same,"effect on aminoacetonitrile symptoms, in words",[8]; rabbit,cannot prevent the occurrence of these conditions
same,Deformed gait of back legs,[8]; [16],1.6
same,Deformed gait of front legs,[8]; [16],3.2
same,General Condition of Animal,[8]; [16],3.8
same,Loss of fur,[8]; [16],3
same,Loss of weight,[8]; [16],3.5
same,Ptosis of auricular pavilion,[8]; [16],1.4
same,activity at 2 µg/mL,[9],78%
Cc1cccc(Nc2ccccc2C(=O)O)c1C [Mephenamic ac.],ED50,[6]; [12],439 µmol/kg and 106 mg/kg
same,activity at 10 µg/mL,[9],58%
CCCCC1C(=O)N(c2ccccc2)N(c2ccccc2)C1=O [Phenylbutazone],ED50,"[2]; rat, oral",324 µmol/kg and 100 mg/kg
same,ED50,[6]; [12],464 µmol/kg and 143 mg/kg
same,activity at 10 µg/mL,[9],58%

# Reference: patent US3985878A, “Anti-inflammatory and antirheumatic compounds and preparation” (priority 1974, dated 1976)
